In data set [1] the test system is Δ-5 desaturase enzyme. Conditions: Shimizu et al., Lipids 26:512-516 (1991); cited from earlier work.
Data set [2] relates to PGE2, IL-10, IL-6 and TNF-α. Conditions: fed mice, cited from earlier work.
Data set [3] has as its system Δ-5 desaturation of ω6 fatty acids. Put plainly: Fatty acid composition of liver membrane phospholipids from mice fed sesamol-supplemented safflower oil diet. Format: in vivo, Balb/c mice. Particulars: 2 weeks; for DGLA (20:3ω6): control 1.4 ± 0.1; for Docosapentaenoic acid (22:5ω6): control 2.5 ± 0.4; for Δ-5 desaturation (20:4ω6/20:3): ratio Arachidonic acid/Dihomo-γ-linolenic acid, liver phospholipids, SO + 1% sesamol diet, control 18.0 ± 1.7. The method, then: The phospholipid fatty acid composition of the livers were determined, and the data represent mean mole percents of the total fatty acids (±s.d.). The levels of significance between the groups were determined using an unpaired student's t-test (p,0.05).
[…] They were allowed free access to drinking water and the experimental diets were fed at dusk, daily, between 4-5 PM. The weights of the body, and of the liver and spleen were determined on days 4, 7 and 14.
(§1) Diets: The AIN-76A fat-free powder along with 0.05% t-butyl hydroxy toluene, an antioxidant, was mixed with 5 wt % (10% Kcal) of safflower oil (Oilseeds International Ltd., Fresno, Calif.), partitioned into daily rations packaged in separate whirl-pack bags, flushed with N2, and stored at 4° C. Where indicated, these diets were supplemented with 1 wt % sesamol (Aldrich Chemical Company Inc. Milwaukee, Wis.).
Fatty acid analysis: Liver tissues were homogenized and extracted with a mixture of chloroform:methanol(2:1 v/v) containing 0.01% t-butylated hydroxytoluene as an antioxidant. The solvent fraction was isolated and evaporated to dryness under N2 and reconstituted in chloroform. The total phospholipids were separated by thin-layer chromatography on silica gel-H plates (Analtech Inc., Newark, Del.), and the fatty acid methyl esters were derived (Palombo et al., Lipids 29: 643-649 (1994)) and analyzed on a fused silica capillary column (100 m, 0.25 mm ID, 0.20 μm thickness; SP™-2560, Supelco Inc., Bellefonte, Pa.) using a gas chromatograph (5890 Series II) equipped with a mass selective detector (5971, Hewlett-Packard). The results were expressed as relative percent of identified fatty acids on a molar basis, using heptadecaenoic acid (17:0) as an internal standard.
The changes in the fatty acid composition (mean±s.d; mol. %) were determined in the liver membrane phospholipids from mice fed both the SO diets for 2 weeks (Table 1). […] Similar data were obtained in mice fed for as short as 4 days (data not shown).

Data set [4] concerns TNF-α, IL-6, IL-10 and IL-12. Put plainly: Endotoxin-induced in vivo production of cytokines (plasma ELISA) in mice fed sesamol-supplemented SO diet. Set-up: species or system Balb/c mice. Conditions: SO + 1% sesamol diet, mean ± s.e.; for Tumor Necrosis Factor (TNF)-α: plasma at 1 hour following LPS, SO alone 3,042 ± 428; for Interleukin (IL)-6 / IL-10 / IL-12: plasma at 3 hours following LPS; for Interleukin (IL)-6: SO alone 143 ± 22; for IL-10: SO alone 262 ± 15; for IL-12: SO alone 6,355 ± 482. On the procedure:
Data represent the levels of […] (means±s.e.) in plasma samples obtained at 1 hour for TNF-α, and at 3 hours for IL-6, IL-10, and IL-12 following LPS exposure. The levels of significance in the differences between the two groups were determined using Dunnett Multiple Comparison test.
as §1
The plasma levels of TNF-α, IL-6, IL-10 and IL-12 were determined according to the manufacturer's instructions using enzyme-linked immunosorbent assay kits (Biosource International, Camarrilo, Calif.).
(In general: ELISA stands for enzyme-linked immunosorbent assay.)

Data set [5] has as its system IL-6, IL-10, IL-12, TNF-α and PGE2. As to the kind of experiment: Synthetic sesamol diet in endotoxic mice: plasma cytokines and PGE2 after LPS challenge. It is filed as in vivo, Balb/c mice. Conditions: 5% SO + 0.25% synthetic sesamol diet, three weeks, 50 μg/mouse LPS for 90 minutes or three hours. The source says:
Proinflammatory mediators play an important role during endotoxic shock. As described herein, naturally occurring sesamol inhibits Δ-5 desaturase activity, and also decreases the production of prostaglandin (PG)E2. No such scientific data are available for the synthetic, pure form of sesamol. Therefore, the effects of consuming synthetic sesamol on proinflammatory immune responses during septic shock were studied. Female Balb/c mice were fed diets supplemented with 5% safflower oil (SO) in the absence or presence of 0.25% synthetic sesamol for three weeks. After a challenge with 50 μg/mouse LPS for 90 minutes or three hours, the plasma levels (pg/ml) of interleukin (IL)-6, IL-10, IL-12, tumor necrosis factor (TNF)-α and PGE2 were determined.

A short description of data set [6]: Weights of body, liver and spleen of mice fed sesamol-supplemented diets. Format: in vivo, Balb/c mice. The method, then: Animals: Six 8-week old, inbred, female Balb/c mice (Taconic Farms) were housed in our animal facility with a 12 hour day and 12 hour night cycle. They were allowed free access to drinking water and the experimental diets were fed at dusk, daily, between 4-5 PM. The weights of the body, and of the liver and spleen were determined on days 4, 7 and 14.

Where [7] appears, read: liver membrane phospholipids, 5 wt % SO + 1% sesamol diet, mean ± s.d., n=8.
Setting [8] is: liver membrane phospholipids, 5 wt % SO + 1% sesamol diet, mean ± s.d., n=8, listed as SO + SESAMOL.
Setting [9] is: mice fed sesamol-supplemented diets vs SO diets.

Several values for one entry are separate records, joined by “and”; a condition that tells them apart may be missing. Equal entries are not always repeated. Entries after “also recorded” stand apart in the source; their conditions may differ. Marks after values point to notes of the source that are not given here.

Consider `c1cc2c(cc1[C@H]1OC[C@H]3[C@@H]1CO[C@@H]3c1ccc3c(c1)OCO3)OCO2` [sesamin], for which, in data set [1], the “inhibition of the activity of Δ-5 desaturase enzyme in vitro” value is recorded as “inhibit”. Further, in data set [2] (Chavali et al. 1997), the “LPS-induced production of IL-6” value is reported as “lower”, the “LPS-induced production of IL-10” value is “lower” and the “LPS-induced production of PGE2” value was “lower”. Moreover, the “LPS-induced production of TNF-α” value in data set [2] (Chavali et al.) was “elevated; also recorded: higher”.
With `Oc1cc2c(cc1[C@H]1OC[C@H]3[C@@H]1CO[C@@H]3c1ccc3c(c1)OCO3)OCO2` [sesaminol], the “inhibition of the activity of Δ-5 desaturase enzyme in vitro” value in data set [1] was “inhibit”.
For the compound `Oc1ccc2c(c1)OCO2` [sesamol, 3,4-methylenedioxyphenol], in data set [3] (setting [7]), the “Arachidonic acid (20:4ω6)” value was “unchanged”, the “Docosahexaenoic acid (22:6ω3)” value is on record as 9.5 ± 0.4 mole percents, the “Oleic acid (18:1ω9)” value was found to be 8.2 ± 1.1 mole percents and the “Palmitic acid (16:0)” value worked out at 19.5 ± 1.4 mole percents. For the same compound, in data set [3] (setting [7]), the “Stearic acid (18:0)” value is recorded as 19.2 ± 1.7 mole percents; the “Vaccenic acid (18:1ω7)” value is 2.6 ± 0.4 mole percents; the “DGLA (20:3ω6)” value was 1.6±0.1 mole percents and 1.6±1 mole percents; the “Docosapentaenoic acid (22:5ω6)” value turned out to be 1.4±0.1 mole percents. Also, in data set [3] (setting [8]), the “DGLA (20:3ω6)” value is 1.6 ± 0.1^a mole percents, the “Docosapentaenoic acid (22:5ω6)” value is recorded as 1.4 ± 0.1^a mole percents and the “Arachidonic acid (20:4ω6)” value is given as 24.9 ± 0.9 mole percents. Besides, the “Δ-5 desaturation (20:4ω6/20:3)” value in data set [3] amounted to 15.6±1.5. In addition, in data set [3] (listed as SO + SESAMOL), the “Δ-5 desaturation (20:4ω6/20:3)” value was 15.6 ± 1.5^a. Moreover, in data set [4], the “Tumor Necrosis Factor (TNF)-α” value was “not elevated; also recorded: unaffected; also recorded: did not differ markedly; also recorded: did not differ significantly”, the “Interleukin (IL)-6” value is 63 ± 11 ng/mL, the IL-10 entry is listed as “unaffected; also recorded: did not differ markedly; also recorded: did not differ significantly” and the IL-12 result is recorded as “did not differ markedly”. In data set [4] (listed as SO + SESAMOL), the “Tumor Necrosis Factor (TNF)-α” value is recorded as 2,931 ± 461 pg/ml, the “Interleukin (IL)-6” value was determined as 63 ± 11 ng/mL, the IL-10 was 236 ± 20 pg/mL and the IL-12 is 6,620 ± 646 pg/ml. In addition, the IL-10 entry in data set [5] (SO alone 314 ± 37) is listed as “significantly higher”. The IL-10 in data set [5] (SO alone 314 ± 37, listed as SO + Sesamol) was 490 ± 35 pg/mL. For the same compound, the IL-6 result in data set [5] (SO alone 418 ± 51) is recorded as “did not differ”. Further, the IL-6 in data set [5] (SO alone 418 ± 51, listed as SO + Sesamol) was 360 ± 32 pg/mL. Further, the PGE2 result in data set [5] (SO alone 595 ± 68) was “markedly lower”. Also, the PGE2 in data set [5] (SO alone 595 ± 68, listed as SO + Sesamol) came out at 265 ± 39 pg/mL. The TFN-α result in data set [5] (SO alone 9,497 ± 1425) is listed as “markedly lower”. The TFN-α in data set [5] (SO alone 9,497 ± 1425, listed as SO + Sesamol) is recorded as 4,503 pg/ml. Moreover, the IL-12 result in data set [5] (SO alone 11,165 ± 549) is recorded as “markedly lower”. Further, the IL-12 in data set [5] (SO alone 11,165 ± 549, listed as SO + Sesamol) is 8,969 pg/ml. For the same compound, in data set [6] (setting [9]), the weights of body result is reported as “not significantly different”, the weights of livers entry is given as “unaffected; also recorded: not significantly different” and the “weights of the spleen” value was “not significantly different”. In addition, the “percent gain in body weights” value in data set [6] (sesamol-supplemented vs SO diet group) is listed as “almost identical”. Besides, in data set [1], the “inhibition of the activity of Δ-5 desaturase enzyme in vitro” value is given as “does not inhibit”.
Consider `c1cc2c(cc1O[C@H]1OC[C@H]3[C@@H]1CO[C@@H]3c1ccc3c(c1)OCO3)OCO2` [sesamolin], for which the “inhibition of the activity of Δ-5 desaturase enzyme in vitro” value in data set [1] is reported as “inhibit”.

The values above are taken from patent US20010031275A1, “Sesamol inhibitor of delta-5-desaturase activity and uses therefor” (priority 1998, published 2001).
